Columns and labels:
Assay in all cases: Pre-emergent Test I herbicidal activity
Format in all cases: in vivo
[1] = tested on: AMARE: redroot pigwseed (Amaranthus retroflexus); conditions: pre-emergence, 336 h, read-out: Visual Growth Reduction (%) 14 Days After Application, AMARE; for pest or weed control at 3840 g/ha: 3.84 kg ai/ha
Description: (§1) Pre-emergent Test I Seeds of test species were planted into round plastic pots (5-inch diameter) containing sandy loam soil. After planting, all pots were sub-irrigated 16 h prior to compound application. Compounds were dissolved in a 97:3 v/v (volume/volume) mixture of acetone and dimethyl sulfoxide (DMSO) and diluted to the appropriate concentration in a final application solution containing water, acetone, isopropanol, DMSO and Agri-dex (crop oil concentrate) in a 59:23:15:1.0:1.5 v/v ratio and 0.02% w/v (weight/volume) of Triton X-155 to obtain the spray solution containing the highest application rate. Additional application rates were obtained by serial dilution of the high rate solution with the above application solution. Formulated compound (2.7 mL) was applied pipetted evenly over the soil surface followed by incorporation with water (15 mL). Following treatment, pots were returned to the greenhouse for the duration of the experiment. The greenhouse was programmed for an approximate 15 h photoperiod which was maintained at about 23-29° C. during the day and 22-28° C. during the night. Nutrients and water were added on a regular basis through surface irrigation and supplemental lighting was provided with overhead metal halide 1000-Watt lamps as necessary. Herbicidal effect ratings were obtained 14 days after treatment. All evaluations were made relative to appropriate controls on a scale of 0 to 100 where 0 represents no herbicidal effect and 100 represents plant death or lack of emergence from the soil.

[2] = tested on: IPOHE: ivyleaf morningglory (Ipomoea hederecea); conditions: pre-emergence, 336 h, read-out: Visual Growth Reduction (%) 14 Days After Application, IPOHE; for pest or weed control at 3840 g/ha: 3.84 kg ai/ha; for pest or weed control at 4000 g/ha: 4 kg ai/ha; for pest or weed control at 3960 g/ha: 3.96 kg ai/ha; for pest or weed control at 4040 g/ha: 4.04 kg ai/ha
Description: as §1

[3] = tested on: ECHCG: barnyardgrass (Echinochloa crus-galli); conditions: pre-emergence, 336 h, read-out: Visual Growth Reduction (%) 14 Days After Application, ECHCG; for pest or weed control at 3840 g/ha: 3.84 kg ai/ha; for pest or weed control at 4000 g/ha: 4 kg ai/ha; for pest or weed control at 3960 g/ha: 3.96 kg ai/ha; for pest or weed control at 4040 g/ha: 4.04 kg ai/ha
Description: as §1

[4] = tested on: AVEFA: wild oats (Avena fatua); conditions: pre-emergence, 336 h, read-out: Visual Growth Reduction (%) 14 Days After Application, AVEFA; for pest or weed control at 3840 g/ha: 3.84 kg ai/ha; for pest or weed control at 4000 g/ha: 4 kg ai/ha; for pest or weed control at 3960 g/ha: 3.96 kg ai/ha
Description: as §1

[5] = tested on: SETFA: giant foxtail (Setaria faberi); conditions: pre-emergence, 336 h, read-out: Visual Growth Reduction (%) 14 Days After Application, SETFA; for pest or weed control at 3840 g/ha: 3.84 kg ai/ha; for pest or weed control at 4000 g/ha: 4 kg ai/ha; for pest or weed control at 3960 g/ha: 3.96 kg ai/ha; for pest or weed control at 4040 g/ha: 4.04 kg ai/ha
Description: as §1

[6] = tested on: HELAN: sunflower (Helianthus annuus); conditions: pre-emergence, 336 h, read-out: Visual Growth Reduction (%) 14 Days After Application, HELAN; for pest or weed control at 3840 g/ha: 3.84 kg ai/ha; for pest or weed control at 4000 g/ha: 4 kg ai/ha; for pest or weed control at 3960 g/ha: 3.96 kg ai/ha; for pest or weed control at 4040 g/ha: 4.04 kg ai/ha
Description: as §1

For `COC(=O)c1nc(-c2ccc(C#N)cc2F)cc(N)c1Cl` [Compound 16], the pest or weed control at 3840 g/ha [1] was 95 to 100%, the pest or weed control at 3840 g/ha [2] was 95 to 100% and the pest or weed control at 3840 g/ha [3] was 30 to 44%. For the same compound, the pest or weed control at 3840 g/ha [4] was 30 to 44%, the pest or weed control at 3840 g/ha [5] was 0 to 29% and the pest or weed control at 3840 g/ha [6] was 95 to 100%.

Work on `Nc1c(F)c(-c2ccc(Br)cc2)nc(C(=O)O)c1Cl` [Compound 20] yielded a pest or weed control at 4000 g/ha [2] of 95 to 100%, a pest or weed control at 4000 g/ha [3] of 95 to 100% and a pest or weed control at 4000 g/ha [4] of 95 to 100%. It also gave a pest or weed control at 4000 g/ha [5] of 95 to 100% and a pest or weed control at 4000 g/ha [6] of 95 to 100%.

`N#Cc1ccc(-c2nc(C(=O)O)c(Cl)c(N)c2F)cc1` [Compound 39] was tested, and the pest or weed control at 2000 g/ha ([1]; 2 kg ai/ha) was 95 to 100%, the pest or weed control at 2000 g/ha ([2]; 2 kg ai/ha) was 95 to 100% and the pest or weed control at 2000 g/ha ([3]; 2 kg ai/ha) was 95 to 100%. It also gave a pest or weed control at 2000 g/ha ([4]; 2 kg ai/ha) of 85 to 94% and a pest or weed control at 2000 g/ha ([6]; 2 kg ai/ha) of 95 to 100%.

With `Nc1c(F)c(-c2ccc(I)cc2)nc(C(=O)O)c1Cl` [Compound 45, 4-amino-3-chloro-5-fluoro-6-(4-iodophenyl)picolinic acid] the pest or weed control at 3960 g/ha ([1]; 3.96 kg ai/ha) was 95 to 100%, the pest or weed control at 3960 g/ha [2] was 95 to 100% and the pest or weed control at 3960 g/ha [3] was 95 to 100%. For the same compound, the pest or weed control at 3960 g/ha [4] was 95 to 100%, the pest or weed control at 3960 g/ha [5] was 95 to 100% and the pest or weed control at 3960 g/ha [6] was 95 to 100%.

Work on `COC(=O)c1nc(-c2ccc(OC(F)F)cc2)c(F)c(N)c1Cl` [Compound 85] yielded a pest or weed control at 3760 g/ha ([1]; 3.76 kg ai/ha) of 95 to 100%, a pest or weed control at 3760 g/ha ([2]; 3.76 kg ai/ha) of 30 to 44% and a pest or weed control at 3760 g/ha ([3]; 3.76 kg ai/ha) of 95 to 100%. The pest or weed control at 3760 g/ha ([4]; 3.76 kg ai/ha) was 75 to 84% and the pest or weed control at 3760 g/ha ([6]; 3.76 kg ai/ha) was 95 to 100%.

`COC(=O)c1nc(-c2ccc(Br)c(F)c2F)c(F)c(N)c1Cl` [Compound 109, methyl 4-amino-6-(4-bromo-2,3-difluorophenyl)-3-chloro-5-fluoropicolinate] gave a pest or weed control at 4000 g/ha [2] of 95 to 100%, a pest or weed control at 4000 g/ha [3] of 95 to 100% and a pest or weed control at 4000 g/ha [4] of 85 to 94%. For the same compound, the pest or weed control at 4000 g/ha [5] was 95 to 100% and the pest or weed control at 4000 g/ha [6] was 75 to 84%.

In the case of `COC(=O)c1nc(-c2ccc(Br)c(F)c2F)cc(N)c1Cl` [Compound 114, methyl 4-amino-6-(4-bromo-2,3-difluorophenyl)-3-chloropicolinate], the pest or weed control at 3920 g/ha ([1]; 3.92 kg ai/ha) is reported as 95 to 100%, the pest or weed control at 3920 g/ha ([2]; 3.92 kg ai/ha) is reported as 95 to 100% and the pest or weed control at 3920 g/ha ([3]; 3.92 kg ai/ha) is reported as 75 to 84%. For the same compound, the pest or weed control at 3920 g/ha ([4]; 3.92 kg ai/ha) was 95 to 100%, the pest or weed control at 3920 g/ha ([5]; 3.92 kg ai/ha) was 85 to 94% and the pest or weed control at 3920 g/ha ([6]; 3.92 kg ai/ha) was 95 to 100%.

Work on `COC(=O)c1nc(-c2ccc(I)cc2)c(F)c(N)c1Cl` [Compound 118, Methyl 4-amino-6-(4-iodophenyl)-3-chloro-5-fluoropicolinate] yielded a pest or weed control at 2320 g/ha ([1]; 2.32 kg ai/ha) of 95 to 100%, a pest or weed control at 2320 g/ha ([2]; 2.32 kg ai/ha) of 95 to 100% and a pest or weed control at 2320 g/ha ([3]; 2.32 kg ai/ha) of 95 to 100%. It also gave a pest or weed control at 2320 g/ha ([4]; 2.32 kg ai/ha) of 95 to 100% and a pest or weed control at 2320 g/ha ([6]; 2.32 kg ai/ha) of 95 to 100%.

`COC(=O)c1nc(-c2ccc(C#N)cc2)c(F)c(N)c1Cl` [Compound 142] showed a pest or weed control at 3840 g/ha [1] of 95 to 100%, a pest or weed control at 3840 g/ha [2] of 95 to 100% and a pest or weed control at 3840 g/ha [3] of 30 to 44%. It also gave a pest or weed control at 3840 g/ha [4] of 95 to 100% and a pest or weed control at 3840 g/ha [6] of 95 to 100%.

Compound `Nc1c(F)c(-c2ccc(Br)c(F)c2F)nc(C(=O)O)c1Cl` [Compound 147] has a pest or weed control at 3960 g/ha [2] of 95 to 100%, a pest or weed control at 3960 g/ha [3] of 95 to 100% and a pest or weed control at 3960 g/ha [4] of 95 to 100%. It also gave a pest or weed control at 3960 g/ha [5] of 95 to 100% and a pest or weed control at 3960 g/ha [6] of 95 to 100%.

In the case of `COC(=O)c1nc(-c2ccccc2)c(F)c(N)c1Cl` [Compound 181], the pest or weed control at 1760 g/ha ([1]; 1.76 kg ai/ha) is reported as 95 to 100%, the pest or weed control at 1760 g/ha ([2]; 1.76 kg ai/ha) is reported as 85 to 94% and the pest or weed control at 1760 g/ha ([4]; 1.76 kg ai/ha) is reported as 0 to 29%. For the same compound, the pest or weed control at 1760 g/ha ([5]; 1.76 kg ai/ha) was 75 to 84% and the pest or weed control at 1760 g/ha ([6]; 1.76 kg ai/ha) was 85 to 94%.

`COC(=O)c1nc(-c2ccc(C(F)F)c(F)c2)cc(N)c1Cl` [Compound 196] gave a pest or weed control at 3840 g/ha [1] of 95 to 100%, a pest or weed control at 3840 g/ha [2] of 95 to 100% and a pest or weed control at 3840 g/ha [3] of 85 to 94%. It also gave a pest or weed control at 3840 g/ha [5] of 95 to 100% and a pest or weed control at 3840 g/ha [6] of 95 to 100%.

In the case of `COC(=O)c1nc(-c2cccc(F)c2F)c(F)c(N)c1Cl` [Compound 199], the pest or weed control at 4000 g/ha [2] is reported as 75 to 84%, the pest or weed control at 4000 g/ha [3] is reported as 0 to 29% and the pest or weed control at 4000 g/ha [5] is reported as 45 to 59%. For the same compound, the pest or weed control at 4000 g/ha [6] was 60 to 74%.

Compound `COC(=O)c1nc(-c2ccccc2F)c(F)c(N)c1Cl` [Compound 206] has a pest or weed control at 4040 g/ha [2] of 95 to 100%, a pest or weed control at 4040 g/ha [3] of 0 to 29% and a pest or weed control at 4040 g/ha [5] of 75 to 84%. The pest or weed control at 4040 g/ha [6] was 95 to 100%.

For `C=Cc1c(C(=O)O)nc(-c2ccc(Cl)c(F)c2)c(F)c1N` [Compound 214], the pest or weed control at 4040 g/ha [2] was 95 to 100%, the pest or weed control at 4040 g/ha [3] was 95 to 100% and the pest or weed control at 4040 g/ha ([4]; 4.04 kg ai/ha) was 85 to 94%. The pest or weed control at 4040 g/ha [5] was 95 to 100% and the pest or weed control at 4040 g/ha [6] was 95 to 100%.

Source: patent US9113629B2, “4-amino-6-(4-substituted-phenyl)-picolinates and 6-amino-2-(4-substituted-phenyl)-pyrimidine-4-carboxylates and their use as herbicides” (DOW AGROSCIENCES LLC, priority 2013, dated 2015)
